Measured values reported in US11465984B2, “Compound having ERK kinase inhibitory activity and use thereof” (SHANGHAI HAIHE PHARMACEUTICAL CO., LTD., priority 2017, dated 2022).

Assay: Permeability study, Caco-2 cell in vitro drug absorption model
Assay type: in vitro ADME
Details: human
Procedure: The permeability of Compound P9 of the invention and Compound A107 of WO2017/114510A1 was determined using Caco-2 cell in vitro drug absorption model in this Example
• Cell: human intestinal cancer Caco2 (HTB-37, ATCC) • Petri dish: 10 cm petri dish (430167, Corning) • Millicell-24 microplage (PSHT010R5, Millipore) • Buffer: PBS (14190, Invitrogen) • HEPES (H0887, Sigma) • HBSS (H8264, Sigma) • Substances related to cell culture: • high glucose DMEM medium (L0103-500, Biowest) • fetal bovine serum (S1810-500, Biowest) • trypsin (255200-056, Invitrogen) • nonessential amino acid (M7145, Sigma) • penicillin and streptomycin (B-13234, GIBCO) • sodium pyruvate (11360-070, Invitrogen) • L-glutamine (25030-081, Invitrogen) • Relevant reagents: fluorescein (L0144, Sigma) • propranolol (P831800, Sigma) • colchicine (C9754, Sigma) • atenolol (A7655, Sigma) • Instruments: liquid chromatography (Waters Acquity UPLC I-class, Waters) • mass spectrometry (Waters xevo TQ-S MS/MS, Waters) • ohmmeter (Millicell-ERS, Thermo) • microplate reader (Infinite Pro, Tecan) (2). Assay Protocol:
• 1) The Caco-2 cells were revived, and incubated in a 10 cm petri dish in a 5-6% CO2 and 95% RH incubator at 37° C. […] The cells were re-suspended in 6 ml complete medium, and counted three times. • 3) The cells were harvested by centrifugation at 1000 rpm for 5 min, and diluted in suspension. […]

- efflux ratio at 1.5 h, 20 μm: 1.3
- Papp A→B at 1.5 h, 20 μm (Papp, Apical to Basal, 20 μm, 1.5 h, read-out: apparent permeability coefficient (Caco-2) From A to B): 23.7 ×10⁻⁶ cm/s
SMILES: Cn1nccc1Nc1cc(-c2cc(F)c3c(c2)CCN3C(=O)Cc2cccnc2Cl)ccn1 [Example P9, 2-(2-chloropyridin-3-yl)-1-(7-fluoro-5-(2-((1-methyl-1H-pyrazol-5-yl)amino)pyridin-4-yl)indolin-1-yl)ethan-1-one]
